Test results from US20030045580A1, “Ibuprofen containing active agent preparation” (priority 2000, published 2003).

Assay: Hardness (radial breaking force) of 200 mg, 9 mm compacts from active ingredient preparation vs physical mixture
Type: physicochemical
Conditions: 200 mg compacts, diameter 9 mm
Protocol: The hardness of the round compacts means the radial breaking force.
Various compositions of the novel active ingredient preparation were compressed under various pressures using a type EKO press supplied by Korsch, Berlin, to give 200 mg compacts with a diameter of 9 mm. For comparison therewith, the physical mixtures (PM) of the same composition were compressed under analogous conditions, and the hardnesses of the produced compacts were compared. Physical mixtures mean the dry mixture of ibuprofen with the particular binder.
In contrast to the purely physical mixtures, the novel ibuprofen-containing active ingredient compositions result, even with low compressive forces, in compacts with hardnesses which are distinctly above the hardnesses of 25 N which are adequate for tablets.

- Hardness with a compressive force of 4.7 to 5.3 kN (compressive force 4.7 to 5.3 kN): 11.0 N
- Hardness with a compressive force of 9.7 to 10.9 kN (compressive force 9.7 to 10.9 kN): 10.8 N
- Hardness with a compressive force of 20.1 to 21.1 kN (compressive force 20.1 to 21.1 kN): 20.1 N
Compound: CC(C)Cc1ccc(C(C)C(=O)O)cc1 (stereo not drawn) [0% (pure), 2-(4-isobutylphenyl)propionic acid]
